PubChem BioAssay (NCI)
“And” between values parts separate entries of the source, which are not always exact repeats. Identical values can stand only once.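 Protocol summary: plate cells (96-well), add compound at 5 concentrations, incubate 48 h, interpolate endpoints linearly. GI50 marks 50% less growth. The concentration for full growth arrest is given as TGI.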

How the values were obtained:
Test in all cases: NCI tumour cell line growth inhibition, 48 h
A498 renal = tested on: A498 renal
COLO 205 colon = tested on: COLO 205 colon
HCC-2998 colon = tested on: HCC-2998 colon
HCT-15 colon = tested on: HCT-15 colon
MOLT-4 leukemia = tested on: MOLT-4 leukemia
NCI/ADR-RES ovarian = tested on: NCI/ADR-RES ovarian
OVCAR-4 ovarian = tested on: OVCAR-4 ovarian
SF-539 CNS = tested on: SF-539 CNS
SK-MEL-28 melanoma = tested on: SK-MEL-28 melanoma
SN12C renal = tested on: SN12C renal

| SMILES | TGI (A498 renal) | TGI (COLO 205 colon) | TGI (HCC-2998 colon) | TGI (HCT-15 colon) | TGI (MOLT-4 leukemia) [µM] | TGI (NCI/ADR-RES ovarian) | TGI (OVCAR-4 ovarian) [µM] | TGI (SF-539 CNS) [µM] | TGI (SK-MEL-28 melanoma) | TGI (SN12C renal) [µM] | GI50 (A498 renal) | GI50 (COLO 205 colon) | GI50 (HCC-2998 colon) | GI50 (HCT-15 colon) | GI50 (MOLT-4 leukemia) | GI50 (NCI/ADR-RES ovarian) | GI50 (OVCAR-4 ovarian) [µM] | GI50 (SF-539 CNS) | GI50 (SK-MEL-28 melanoma) | GI50 (SN12C renal) [µM] |
| --- | --- | --- | --- | --- | --- | --- | --- | --- | --- | --- | --- | --- | --- | --- | --- | --- | --- | --- | --- | --- |
| COc1ccc(C2=C(Cl)c3cc(OC)c(OC)cc3C2Cl)cc1 (configuration not stated) | 28.9 µM | 33.4 µM | 28.1 µM | 30.6 µM | > 59.4 | 33.3 µM | 35.4 | 30.8 | 31.8 µM | 30.5 |  |  |  |  |  |  |  |  |  |  |
| Cc1cc(C(=O)Nc2ccc3cc(CN4CCOCC4)ccc3n2)c(C)n1-c1ccccc1 | 64.2 µM | 5.07 µM | > 100 µM | 20.4 µM | 3.29 | 4.69 µM | > 23.8 | 27.7 | 8.91 µM | > 92.3 | 3.09 µM | 1.83 µM | 8.78 µM | 2.41 µM | 0.812 µM | 1 µM | 1.24 | 4.84 µM | 2.91 µM | 5.75 |
| COc1ccc(C(=O)c2cc(OC)c(OC)c(OC)c2)cc1/C=C/C(=O)c1ccc(F)cc1 | 29.9 µM | 28.1 µM | 22.6 µM | 6.96 µM | 29.3 | 73.2 µM | 33.6 | 4.3 | 7.25 µM | 8.18 | 14 µM | 5.18 µM | 7.29 µM | 2.14 µM | 3.24 µM | 3.69 µM | 4.55 | 1.98 µM | 2.48 µM | 2.62 |
| COc1cc2ncnc(-n3ncc4cc(NC(=O)Nc5ccccc5)ccc43)c2cc1OC | 0.896 µM | 4.53 µM | 11.2 µM | 11.1 µM | 3.56 | 17.6 µM | 4.26 | 17.3 | 4.33 µM | 5.78 | 0.21 µM | 1.32 µM | 1.88 µM | 0.579 µM | 0.86 µM | 2.52 µM | 1.01 | 0.23 µM | 1.38 µM | 1.14 |
| NS(=O)(=O)c1ccc(-c2ccc3c(NC(=O)C4CC4)n[nH]c3c2)cc1 | > 25 µM | > 25 µM | > 25 µM | > 25 µM | > 25 | > 25 µM | > 25 | > 25 | > 25 µM | > 25 | > 25 µM | > 25 µM | > 25 µM | > 25 µM | > 25 µM | > 25 µM | > 25 | > 25 µM | > 25 µM | > 25 |
| Nc1nc(Nc2cccnc2)sc1C(=O)c1ccccc1F | 7.02 µM | 4.68 µM | 0.972 µM | > 87.8 µM | > 26.6 | 12.2 µM | 76.6 | 3.88 | 22.3 µM | > 100 | 2.59 µM | 1.78 µM | 0.309 µM | 2.82 µM | 2.52 µM | 0.844 µM | 8.74 | 1.52 µM | 4.13 µM | 3.02 |
| COC(=O)Nc1nc2ccc(C3(c4ccc(F)cc4)OCCO3)cc2[nH]1 | 2.87 µM | 2.88 µM | > 100 µM | > 100 µM | > 100 | > 35.4 µM | > 100 | 0.52 | > 100 µM | > 100 | 0.133 µM | 0.297 µM | 1.99 µM | 0.178 µM | 0.573 µM | 0.28 µM | 7.16 | 0.196 µM | 0.769 µM | 0.584 |
| CC1=CC(=O)C=CC1=O | 96 µM and 144 µM | 27.3 µM and 25 µM | 26.2 µM and 35.4 µM | 38 µM and 29 µM |  | 43 µM and 64.4 µM | 30.4 | 31.4 | 30.8 µM and 32.6 µM |  | 30.6 µM and 51.5 µM | 13.4 µM and 12.1 µM | 13.2 µM and 18.6 µM | 19.1 µM and 13.2 µM | 3.29 µM and 3.22 µM | 20.6 µM and 24 µM | 15.1 | 29.3 µM and 17 µM | 16.9 µM and 17.9 µM | 28.7 |
| COc1ccc(-c2[nH]c3ccc(OC)cc3c2/C=C(\C#N)S(=O)(=O)c2ccccc2)cc1 | 8.18 µM | 1.83 µM | 5.87 µM | > 100 µM | > 20.2 | 9.22 µM | > 100 | 2.51 | > 67.8 µM | > 100 | 0.966 µM | 0.396 µM | 1.95 µM | 0.614 µM | 0.745 µM | 0.479 µM | 2.09 | 0.495 µM | 0.765 µM | 2.2 |
| NC(=O)c1cc(Cl)ccc1NC(=O)/C=C/c1ccccc1 | > 53.7 µM | > 24.1 µM | 2.79 µM | > 100 µM | > 100 | > 26.9 µM | > 100 | 5.53 | > 100 µM | > 100 | 5.09 µM | 2.16 µM | 0.487 µM | 2.38 µM | 3.44 µM | 2.63 µM | 2.77 | 2.05 µM | 2.58 µM | 5.47 |
| Cc1ccc(NC(=O)c2cccc(C(C)(C)C#N)c2)cc1Nc1ccc2ncn(C)c(=O)c2c1 | 4.08 µM | 92.2 µM | > 100 µM | > 100 µM | > 100 | > 100 µM | > 100 | > 100 |  | > 100 | 0.742 µM | 0.0257 µM | 0.0676 µM | 3.11 µM | 5.2 µM | 4.12 µM | 3.9 | 3.32 µM | 0.0192 µM | 4.94 |
| N#Cc1cc(-c2cc3ccccc3o2)oc1N | 4.68 µM | 4.74 µM | 18.9 µM | 13 µM | 6.64 | > 100 µM | 40.6 | 14.5 | 19.7 µM | 11.8 | 1.76 µM | 2.06 µM | 4.92 µM | 3.35 µM | 1.94 µM | 3.71 µM | 3.23 | 3.89 µM | 6.54 µM | 3 |
| CCc1nc(N)nc(N)c1-c1ccc(NC)c([N+](=O)[O-])c1 | > 87 µM | 34.4 µM | 65.7 µM | > 100 µM | > 68.2 | > 100 µM | > 100 | > 100 | > 100 µM | > 100 |  |  |  |  |  |  |  |  |  |  |
| CN1CCN(CCCNc2nc3ccc(Oc4ccc(NC(=O)Nc5cc(C(F)(F)F)ccc5F)cc4)cc3[nH]2)CC1 | > 18.9 µM | 7.97 µM | 8.1 µM | > 25 µM | 9.89 | > 25 µM | > 19.5 | 8.52 | 7.73 µM | 11.2 | 2.93 µM | 4.5 µM | 4.35 µM | > 25 µM | 4.83 µM | > 25 µM | 5.88 | 4.22 µM | 4.24 µM | 4.77 |
| Nc1ccccc1C#C/C=C\C#Cc1ccccc1N | 36 µM | > 100 µM | 24.4 µM | 33.3 µM | 17.3 | 7.95 µM | > 100 | 26.6 | 82 µM | 54.4 | 13.6 µM | 31.3 µM | 0.0333 µM | 14.1 µM | 1.04 µM | 2.26 µM | 34.2 | 10.1 µM | 28.7 µM | 21.8 |
| COc1ccc2[nH]c3c4[nH]c5ccc(OC)cc5c4c4c(c3c2c1)C(=O)NC4=O | > 25 µM | > 25 µM | > 25 µM | > 25 µM | > 25 | > 25 µM | > 25 | > 17 | > 25 µM | > 25 | 7.36 µM | > 25 µM | > 25 µM | > 14.3 µM | > 10.3 µM | > 25 µM | > 25 | 1.31 µM | > 25 µM | 1.19 |
